Each block holds one compound with its values, some of them ahead of it.
Columns and labels:
MRC5 = test: Antiproliferative activity against human MRC5 cells; assay type: functional, cell-based
MIA PaCa-2 = test: Antiproliferative activity against human MIAPaCa2 cells; assay type: functional, cell-based
BJ = test: Antiproliferative activity against human BJ cells; assay type: functional, cell-based
[1] = target: T1, Sarcoplasmic/endoplasmic reticulum calcium ATPase 1 (Oryctolagus cuniculus, UniProt P04191); test: Inhibition of rabbit skeletal muscle microsomes SERCA1a preincubated for 10 mins followed by addition of ATP and measured after 40 mins
[2] = target: T1, Sarcoplasmic/endoplasmic reticulum calcium ATPase 1; test: Inhibition of rabbit skeletal muscle microsomes SERCA1a
[3] = target: T1, Sarcoplasmic/endoplasmic reticulum calcium ATPase 1; test: Inhibition of rabbit skeletal muscle microsomes SERCA1a by enzyme-coupled method
[4] = target: T2, Sarcoplasmic/endoplasmic reticulum calcium ATPase 2 (Homo sapiens, UniProt P16615); test: Inhibition of human SERCA2b expressed in COS7 cells microsomal membranes preincubated for 10 mins followed by addition of ATP and measured after 40 mins by ELISA method; assay type: cell-based
[5] = target: T1, Sarcoplasmic/endoplasmic reticulum calcium ATPase 1; test: Inhibition of rabbit SERCA1b expressed in COS7 cells microsomal membranes preincubated for 10 mins followed by addition of ATP and measured after 40 mins by ELISA method; assay type: cell-based
[6] = target: T3, Sarcoplasmic/endoplasmic reticulum calcium ATPase 3 (Homo sapiens, UniProt Q93084); test: Inhibition of human SERCA3a expressed in COS7 cells microsomal membranes preincubated for 10 mins followed by addition of ATP and measured after 40 mins by ELISA method; assay type: cell-based
[7] = target: T1, Sarcoplasmic/endoplasmic reticulum calcium ATPase 1; test: Inhibition of rabbit skeletal muscle microsomes FITC-labelled SERCA1a incubated for 1 hr by fluorescence spectrophotometric method
[8] = Inhibition of porcine cerebellar microsomes FITC-labelled SERCA2b incubated for 1 hr by fluorescence spectrophotometric method
[9] = Inhibition of Porcine cardiac microsomes SERCA preincubated for 10 mins followed by addition of ATP and measured after 10 mins by colorimetric method; design: species or system Sus scrofa domesticus, Heart
[10] = Inhibition of Porcine cerebellar microsomes SERCA preincubated for 10 mins followed by addition of ATP and measured after 10 mins by colorimetric method; design: species or system Sus scrofa domesticus, Cerebellum
[11] = target: T2, Sarcoplasmic/endoplasmic reticulum calcium ATPase 2; test: Inhibition of SERCA2b in human platelet microsomes by enzyme-coupled method
[12] = Inhibition of porcine cardiac microsomes SERCA2a by enzyme-coupled method; design: species or system Sus scrofa domesticus, Heart
[13] = Inhibition of porcine cerebellar microsomes SERCA2b by enzyme-coupled method; design: species or system Sus scrofa domesticus, Cerebellum
[14] = target: T3, Sarcoplasmic/endoplasmic reticulum calcium ATPase 3; test: Inhibition of SERCA3 in human platelet microsomes by enzyme-coupled method
[15] = target: T1, Sarcoplasmic/endoplasmic reticulum calcium ATPase 1; test: Inhibition of rabbit skeletal muscle microsomes SERCA1a by malachite green based colorimetric method
Sus scrofa domesticus = species on record: Sus scrofa domesticus; test: Inhibition of Porcine cerebellar microsomes SERCA at 200 uM preincubated for 10 mins followed by addition of ATP and measured after 10 mins by colorimetric method relative to control; conditions: Cerebellum
[16] = target: T1, Sarcoplasmic/endoplasmic reticulum calcium ATPase 1; test: Inhibition of rabbit SERCA1a preincubated for 10 mins followed by addition of ATP and measured after 10 mins by colorimetric method
[17] = target: T1, Sarcoplasmic/endoplasmic reticulum calcium ATPase 1; test: Inhibition of SERCA1 in rabbit skeletal muscle microsomes assessed as decrease in NADH absorbance by NADH-coupled enzyme assay; design: species or system Muscle tissue
[18] = target: T1, Sarcoplasmic/endoplasmic reticulum calcium ATPase 1; test: Inhibition of rabbit skeletal muscle microsomes SERCA1a incubated for 10 mins by enzyme-coupled method
[19] = Inhibition of SERCA in human PC3 cell microsomes by enzyme-coupled method

T3 sequence (Q93084 whole entry): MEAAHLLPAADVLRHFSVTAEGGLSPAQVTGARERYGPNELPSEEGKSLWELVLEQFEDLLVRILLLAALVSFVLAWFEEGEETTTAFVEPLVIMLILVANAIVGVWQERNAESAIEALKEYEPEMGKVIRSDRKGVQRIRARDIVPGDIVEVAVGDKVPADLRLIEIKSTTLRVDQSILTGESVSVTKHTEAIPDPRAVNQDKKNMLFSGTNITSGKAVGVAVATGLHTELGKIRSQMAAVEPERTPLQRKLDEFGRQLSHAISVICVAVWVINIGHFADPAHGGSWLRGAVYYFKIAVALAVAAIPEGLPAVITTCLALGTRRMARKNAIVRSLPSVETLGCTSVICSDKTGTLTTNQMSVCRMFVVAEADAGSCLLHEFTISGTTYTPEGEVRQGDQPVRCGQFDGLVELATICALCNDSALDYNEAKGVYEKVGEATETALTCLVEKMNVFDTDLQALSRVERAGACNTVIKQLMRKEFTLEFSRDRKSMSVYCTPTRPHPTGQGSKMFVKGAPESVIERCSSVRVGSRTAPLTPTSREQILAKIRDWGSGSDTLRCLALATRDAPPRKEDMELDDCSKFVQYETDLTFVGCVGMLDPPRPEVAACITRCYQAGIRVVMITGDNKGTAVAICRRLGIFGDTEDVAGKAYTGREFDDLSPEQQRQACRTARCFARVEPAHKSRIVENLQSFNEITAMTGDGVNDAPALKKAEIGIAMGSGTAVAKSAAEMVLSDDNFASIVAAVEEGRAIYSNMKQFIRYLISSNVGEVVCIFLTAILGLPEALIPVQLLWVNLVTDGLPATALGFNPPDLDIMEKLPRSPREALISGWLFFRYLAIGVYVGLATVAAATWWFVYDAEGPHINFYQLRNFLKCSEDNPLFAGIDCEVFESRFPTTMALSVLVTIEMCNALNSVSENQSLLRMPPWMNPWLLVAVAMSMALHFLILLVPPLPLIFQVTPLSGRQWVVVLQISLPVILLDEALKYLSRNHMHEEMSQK
T1 sequence (P04191 whole entry): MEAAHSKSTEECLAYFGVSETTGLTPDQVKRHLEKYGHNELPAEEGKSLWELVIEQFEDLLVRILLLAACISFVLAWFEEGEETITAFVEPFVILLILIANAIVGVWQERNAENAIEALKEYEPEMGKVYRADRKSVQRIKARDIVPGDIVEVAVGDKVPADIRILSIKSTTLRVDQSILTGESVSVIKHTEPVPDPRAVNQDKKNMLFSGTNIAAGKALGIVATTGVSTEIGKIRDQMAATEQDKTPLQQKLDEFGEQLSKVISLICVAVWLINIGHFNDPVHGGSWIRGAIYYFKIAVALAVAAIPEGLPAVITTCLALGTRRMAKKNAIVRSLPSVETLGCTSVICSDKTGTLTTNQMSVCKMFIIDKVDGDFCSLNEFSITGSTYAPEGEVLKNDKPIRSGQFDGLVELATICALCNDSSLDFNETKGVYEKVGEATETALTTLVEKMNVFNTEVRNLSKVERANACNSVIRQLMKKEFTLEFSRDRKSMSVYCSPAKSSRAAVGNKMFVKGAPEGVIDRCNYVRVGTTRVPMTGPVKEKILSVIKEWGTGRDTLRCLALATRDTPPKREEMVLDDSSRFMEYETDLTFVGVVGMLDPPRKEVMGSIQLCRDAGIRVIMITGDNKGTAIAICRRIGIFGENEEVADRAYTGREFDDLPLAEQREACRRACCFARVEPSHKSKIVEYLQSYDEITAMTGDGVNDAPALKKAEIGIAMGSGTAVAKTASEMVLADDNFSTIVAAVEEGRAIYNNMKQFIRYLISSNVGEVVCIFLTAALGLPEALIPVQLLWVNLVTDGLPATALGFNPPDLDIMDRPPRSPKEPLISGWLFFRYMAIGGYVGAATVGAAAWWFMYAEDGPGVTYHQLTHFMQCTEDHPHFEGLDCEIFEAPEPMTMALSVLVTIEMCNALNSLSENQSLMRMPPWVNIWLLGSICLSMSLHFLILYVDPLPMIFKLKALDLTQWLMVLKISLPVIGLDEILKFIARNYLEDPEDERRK
T2 sequence (P16615 whole entry): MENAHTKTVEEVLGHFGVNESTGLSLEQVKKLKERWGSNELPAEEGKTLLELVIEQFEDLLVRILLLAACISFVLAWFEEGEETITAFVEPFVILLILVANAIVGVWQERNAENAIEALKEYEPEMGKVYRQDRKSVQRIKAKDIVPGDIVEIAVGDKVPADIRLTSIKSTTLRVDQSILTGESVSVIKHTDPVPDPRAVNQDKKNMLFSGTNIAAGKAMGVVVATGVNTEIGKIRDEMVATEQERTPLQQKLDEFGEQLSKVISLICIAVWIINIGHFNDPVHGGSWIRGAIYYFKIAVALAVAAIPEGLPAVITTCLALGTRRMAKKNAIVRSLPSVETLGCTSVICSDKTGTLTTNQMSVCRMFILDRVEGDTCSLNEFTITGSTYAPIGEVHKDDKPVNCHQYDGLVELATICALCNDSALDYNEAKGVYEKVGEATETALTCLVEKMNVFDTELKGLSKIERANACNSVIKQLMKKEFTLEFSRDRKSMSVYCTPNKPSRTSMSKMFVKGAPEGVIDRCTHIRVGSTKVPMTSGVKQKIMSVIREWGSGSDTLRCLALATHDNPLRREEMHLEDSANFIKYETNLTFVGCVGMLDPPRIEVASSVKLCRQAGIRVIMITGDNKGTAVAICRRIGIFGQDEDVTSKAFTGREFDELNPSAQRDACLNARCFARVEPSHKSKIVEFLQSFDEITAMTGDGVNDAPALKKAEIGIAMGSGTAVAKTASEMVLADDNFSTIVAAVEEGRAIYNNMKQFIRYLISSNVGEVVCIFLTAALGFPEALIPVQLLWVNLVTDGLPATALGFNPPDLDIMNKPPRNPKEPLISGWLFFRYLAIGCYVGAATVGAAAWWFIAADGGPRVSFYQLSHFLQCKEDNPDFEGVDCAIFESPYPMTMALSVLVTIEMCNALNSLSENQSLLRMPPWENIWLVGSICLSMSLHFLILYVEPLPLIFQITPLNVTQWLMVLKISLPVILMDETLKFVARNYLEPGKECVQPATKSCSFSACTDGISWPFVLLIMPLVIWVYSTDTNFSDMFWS

Compound: C/C=C(/C)C(=O)O[C@@H]1C[C@H]2C(=C1C)[C@@H]1OC(=O)[C@@](C)(O)[C@@]1(O)[C@@H](OC(=O)CCCCn1cc([C@]3(O)CC[C@H]4[C@@H]5CCc6cc(OC)ccc6[C@H]5CC[C@@]43C)nn1)C[C@]2(C)OC(C)=O
IC50 (MRC5): 10.1 µM
IC50 (MIA PaCa-2): > 50 µM
IC50 (BJ): 17 µM

IC50 [1]: 9 µM
Compound: O=c1c(O)c(-c2ccccc2)oc2cc(O)cc(O)c12 [GALANGIN]

IC50 (MIA PaCa-2): 13.7 to 50 µM
Compound: C/C=C(/C)C(=O)O[C@@H]1C[C@H]2C(=C1C)[C@@H]1OC(=O)[C@@](C)(O)[C@@]1(O)[C@@H](OC(=O)CCCCn1cc([C@]3(O)CC[C@H]4[C@@H]5CCC6=CC(O)CC[C@]6(C)[C@H]5CC[C@@]43C)nn1)C[C@]2(C)OC(C)=O (stereo partly specified)
IC50 (MRC5): > 50 µM
IC50 (BJ): 13.7 to 50 µM

IC50 [2]: 13.5 µM
Compound: CCOC(=O)CC1C(C(=O)OCC)=C(N)Oc2ccc(-c3cc(OC)cc(OC)c3)cc21 (stereo unspecified)

Compound: CC[C@H](C)[C@H](N)C(=O)N[C@@H](CC(N)=O)C(=O)N[C@@H](CC(C)C)C(=O)N[C@@H](CCCCN)C(=O)N[C@@H](C)C(=O)N[C@@H](CC(C)C)C(=O)N[C@@H](C)C(=O)N[C@@H](C)C(=O)N[C@@H](CC(C)C)C(=O)N[C@@H](C)C(=O)N[C@@H](CCCCN)C(=O)N[C@@H](CCCCN)C(=O)N[C@H](C(=O)N[C@@H](CC(C)C)C(=O)O)[C@@H](C)CC
Ki [3]: 1 µM

IC50 [2]: 0.61 µM
Compound: CC[C@H](C)[C@H](NC(=O)[C@H](CCCCN)NC(=O)[C@H](CCCCN)NC(=O)[C@H](C)NC(=O)[C@H](CC(C)C)NC(=O)[C@H](C)NC(=O)[C@H](C)NC(=O)[C@H](CC(C)C)NC(=O)[C@H](C)NC(=O)[C@H](CCCCN)NC(=O)[C@H](CC(C)C)NC(=O)[C@H](CC(N)=O)NC(=O)[C@@H](NC(=O)[C@H](Cc1ccc(O)cc1)NC(=O)[C@H](CCCNC(=N)N)NC(=O)[C@@H]1CCCN1C(=O)[C@H](CCCNC(=N)N)NC(=O)[C@H](CC(N)=O)NC(=O)[C@H](CCC(N)=O)NC(=O)[C@H](Cc1ccccc1)NC(=O)[C@@H](Cc1ccc(O)cc1)N(C)C(=O)Cc1ccccc1)[C@@H](C)CC)C(=O)N[C@@H](CC(C)C)C(N)=O

Compound: C/C=C(/C)C(=O)O[C@H]1C(C)=C2[C@H]([C@@H]1OC(=O)CCCCCCC)[C@](C)(OC(C)=O)C[C@H](OC(=O)CCC)[C@@]1(O)[C@H]2OC(=O)[C@@]1(C)O
Ki [2]: 0.011 µM
IC50 [4]: 0.21 to 12 µM
IC50 [5]: 0.21 to 12 µM
IC50 [6]: 0.21 to 12 µM

Compound: NCCOB(c1ccccc1)c1ccccc1
IC50 [7]: 70 to 700 µM
IC50 [8]: 70 to 700 µM

Compound: C/C(O)=C1\C(=O)[C@@H]2[C@H]3c4c[nH]c5cccc(c45)C[C@H]3C(C)(C)N2C1=O
IC50 [4]: 0.09 to 2.5 µM
IC50 [5]: 0.09 to 2.5 µM
IC50 [6]: 0.09 to 2.5 µM

IC50 [9]: 15 µM
IC50 [10]: 15 µM
Compound: IVERMECTIN

Compound: CC(C)(O)[C@H]1O[C@H]2CC[C@@]3(C)[C@@](O)(CC[C@H]4Cc5c([nH]c6ccccc56)[C@@]43C)C2=CC1=O [PAXILLINE]
IC50 [11]: 5 µM
IC50 [12]: 5 µM
IC50 [13]: 5 µM
IC50 [3]: 5 µM
IC50 [14]: 5 µM

IC50 [15]: 1.3 µM
Compound: Clc1cccc(C(Nc2ccnc3cc(Cl)ccc23)c2ccc(CN3CCN(c4ccnc5cc(Cl)ccc45)CC3)cc2)c1 (stereo unspecified)

inhibition (Sus scrofa domesticus): 80%
IC50 [16]: 77 µM
IC50 [9]: 77 µM
IC50 [10]: 77 µM
Compound: CO[C@H]1C[C@@H]2CC[C@@H](C)[C@@](O)(O2)C(=O)C(=O)N2CCCC[C@H]2C(=O)O[C@H]([C@H](C)C[C@@H]2CC[C@@H](O)[C@H](OC)C2)CC(=O)[C@H](C)/C=C(\C)[C@@H](O)[C@@H](OC)C(=O)[C@H](C)C[C@H](C)/C=C/C=C/C=C/1C [SIROLIMUS]

IC50 [13]: 0.5 to 2.3 µM
IC50 [3]: 0.5 to 2.3 µM
Compound: CC(C)(c1cc(Br)c(O)c(Br)c1)c1cc(Br)c(O)c(Br)c1

IC50 [11]: 7 to 15 µM
Ki [4]: 53 µM
Ki [5]: 5.8 µM
IC50 [12]: 7 to 15 µM
IC50 [13]: 7 to 15 µM
Ki [6]: 8.6 µM
IC50 [3]: 3 to 15 µM
IC50 [14]: 7 to 15 µM
Compound: COc1cc(/C=C/C(=O)CC(=O)/C=C/c2ccc(O)c(OC)c2)ccc1O [CURCUMIN]

IC50 [17]: 35 µM
Compound: CCCCCCCCCCCCCCCCCC(=O)O[C@@H]1[C@@H](O)[C@@H](O)[C@H](OC[C@H]2O[C@@H](Oc3c(-c4ccc(O)c(O)c4)oc4cc(O)cc(O)c4c3=O)[C@H](O)[C@@H](O)[C@@H]2O)O[C@H]1C

IC50 [18]: 23 µM
Compound: CN(C)CCCN1c2ccccc2Sc2ccc(Cl)cc21 [CHLORPROMAZINE]

IC50 [19]: 32 µM
Compound: Cc1ccc(-c2cc(C(F)(F)F)nn2-c2ccc(S(N)(=O)=O)cc2)cc1 [CELECOXIB]

IC50 [17]: 23 µM
Compound: CCCCC/C=C\C/C=C\C/C=C\C/C=C\CCCC(=O)O[C@@H]1[C@@H](O)[C@@H](O)[C@H](OC[C@H]2O[C@@H](Oc3c(-c4ccc(O)c(O)c4)oc4cc(O)cc(O)c4c3=O)[C@H](O)[C@@H](O)[C@@H]2O)O[C@H]1C

IC50 [1]: 6 µM
Compound: O=c1c(O)c(-c2ccccc2)oc2ccc(O)cc12

Reference: ChEMBL document CHEMBL4402560, “Sarco/Endoplasmic Reticulum Calcium ATPase Inhibitors: Beyond Anticancer Perspective” (J Med Chem, 2020)
